Experimental data taken from ChEMBL document CHEMBL1201862, “PubChem BioAssay data set” (2004).
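Cultured in 96-well plates, cells were exposed to test compound for 48 hours across five concentrations. At the GI50, growth is halved.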 Active and inactive are the calls of the source. Rule as the data show it: active = GI50 up to about 1.1 µM and inactive = higher.

What was measured:
Assay in all cases: inhibition of tumour cell growth, NCI panel, 48 h
UO-31 = system: UO-31
HOP-62 = system: HOP-62
SF-539 = system: SF-539
HT-29 = system: HT-29
EKVX = system: EKVX
OVCAR-5 = system: OVCAR-5
OVCAR-4 = system: OVCAR-4
UACC-62 = system: UACC-62
A498 = system: A498
UACC-257 = system: UACC-257
U-251 = system: U-251
SK-MEL-28 = system: SK-MEL-28
SNB-19 = system: SNB-19
NCI-H23 = system: NCI-H23
NCI-H522 = system: NCI-H522
LOX IMVI = system: LOX IMVI

Structure (SMILES) | GI50 (UO-31) | GI50 (HOP-62) | GI50 (SF-539) | GI50 (HT-29) | GI50 (EKVX) | GI50 (OVCAR-5) | GI50 (OVCAR-4) | GI50 (UACC-62) | GI50 (A498) | GI50 (UACC-257) | GI50 (U-251) | GI50 (SK-MEL-28) | GI50 (SNB-19) | GI50 (NCI-H23) | GI50 (NCI-H522) | GI50 (LOX IMVI)
O=C(CNc1nncs1)NO | > 100 µM (inactive) | > 100 µM (inactive) | > 100 µM (inactive) | 84.3 µM (inactive) | > 100 µM (inactive) | > 100 µM (inactive) | > 100 µM (inactive) | > 100 µM (inactive) | > 100 µM (inactive) | > 100 µM (inactive) | > 100 µM (inactive) | > 100 µM (inactive) | > 100 µM (inactive) | > 100 µM (inactive) | > 100 µM (inactive) | 
COc1ccc2c(c1)[n+]([O-])c(-c1ccc([N+](=O)[O-])cc1)c(N)[n+]2[O-] | > 100 µM (inactive) | > 100 µM (inactive) | > 100 µM (inactive) | 65.5 µM (inactive) | > 100 µM (inactive) | > 100 µM (inactive) | > 100 µM (inactive) |  | > 100 µM (inactive) | 81.3 µM (inactive) | 68.1 µM (inactive) | 67 µM (inactive) | > 100 µM (inactive) | 88.5 µM (inactive) | 12.7 µM (inactive) | 
Cc1c(C(=O)Nc2ccc(Cl)cc2)nc(N)nc1-c1cccc(Cl)c1 | > 100 µM (inactive) | > 100 µM (inactive) | > 100 µM (inactive) | 36.7 µM (inactive) | > 100 µM (inactive) | > 100 µM (inactive) | > 100 µM (inactive) | > 100 µM (inactive) |  | > 100 µM (inactive) | > 100 µM (inactive) | > 100 µM (inactive) | > 100 µM (inactive) | > 100 µM (inactive) |  | > 10 µM (inactive)
Nc1c(Cl)ncnc1NCCCCCCCCCCCCNc1ncnc(Cl)c1N | 1.05 µM (active) | 0.254 µM (active) | 3.37 µM (inactive) | 7.03 µM (inactive) | 3.44 µM (inactive) | < 0.01 µM (active) | 1.99 µM (inactive) | 2.05 µM (inactive) | 6.05 µM (inactive) | 0.0671 µM (active) | 0.0857 µM (active) | 2.14 µM (inactive) | 4.57 µM (inactive) | < 0.01 µM (active) |  | < 0.01 µM (active)
